Test results: patent US20220073536A1 (Rigel Pharmaceuticals, Inc., priority 2003, published 2022)
Structures can show the parent of a compound that is named as a salt.

How the values were obtained:
[1] = system: cultured human mast cells (CHMC); assay: CHMC low cell density IgE activation: tryptase assay; format: cell-based; conditions: low cell density CHMC, IgE activation
Summary of the method: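 Fluorogenic readout of tryptase released into the supernatant (30 min substrate incubation, room temperature) measures degranulation. Cells were plated at low density (1000–1500/well, varied by donor) and triggered with anti-IgE for 30 min at 37 °C.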

[2] = system: cultured human mast cells (CHMC); assay: CHMC low cell density ionomycin activation: tryptase assay; format: cell-based; conditions: low cell density CHMC, read-out: LD Tryptase, CHMC, Iono, 3 pt
[3] = tryptase release, 3 point, read-out: LD Tryptase, CHMC, IgE, 3 pt
[4] = tryptase release, 8 point, read-out: LD Tryptase, CHMC, IgE, 8 pt
[5] = Homo sapiens, Mast cell, tryptase release, 3 point, read-out: LD Tryptase, CHMC, IgE, 3 pt
[6] = Homo sapiens, Mast cell, tryptase release, 3 point
[7] = Homo sapiens, Mast cell, tryptase, 3 pt, read-out: LD Tryptase, CHMC, IgE, 3 pt
[8] = Homo sapiens, Mast cell, tryptase, 8 pt, read-out: LD Tryptase, CHMC, IgE, 8 pt
[9] = Homo sapiens, Mast cell, tryptase, 3 pt
[10] = Homo sapiens, Mast cell, tryptase release, 3 pt, read-out: LD Tryptase, CHMC, IgE, 3 pt
[11] = Homo sapiens, Mast cell, tryptase release, 8 pt, read-out: LD Tryptase, CHMC, IgE, 8 pt
[12] = Homo sapiens, Mast cell, tryptase release, 3 pt

In the case of `COC(=O)Cn1ccc2cc(Nc3ncc(F)c(Nc4ccc(OC)c(Cl)c4)n3)ccc21` [Compound 646, N4-(3-Chloro-4-methoxyphenyl)-5-fluoro-N2-[1-(methoxycarbonylmethylene)indol-5-yl]-2,4-pyrimidinediamine], the IC50 [1, 3] is reported as < 10 µM, the IC50 [1, 4] is reported as < 10 µM and the IC50 ([2]; tryptase release, 3 point) is reported as > 10 µM.

`COC(=O)Cn1ccc2cc(Nc3ncc(F)c(Nc4ccc5c(c4)OCCO5)n3)ccc21` [Compound 647, N4-(3,4-Ethylenedioxyphenyl)-5-fluoro-N2-[1-(methoxycarbonylmethylene)indol-5-yl]-2,4-pyrimidinediamine] was tested, and the IC50 [1, 3] was < 10 µM, the IC50 [1, 4] was < 10 µM and the IC50 ([2]; tryptase release, 3 point) was > 10 µM.

With `CNC(=O)Cn1ccc2ccc(Nc3ncc(F)c(Nc4ccc5c(c4)OCCO5)n3)cc21` [Compound 649, N4-(3,4-Ethylenedioxyphenyl)-5-fluoro-N2-[1-(N-methylamino)carbonylmethyleneindol-6-yl]-2,4-pyrimidinediamine] the IC50 [1, 3] was < 10 µM, the IC50 [1, 4] was < 10 µM and the IC50 ([2]; tryptase release, 3 point) was > 10 µM.

In the case of `COc1ccc(N(C)c2nc(Cl)ncc2F)cn1` [Compound 657], the IC50 [1, 5] is reported as > 10 µM and the IC50 [2, 6] is reported as > 10 µM.

In the case of `CN(c1ccc(Cl)c(C(F)(F)F)c1)c1nc(Cl)ncc1F` [Compound 658], the IC50 [1, 5] is reported as > 10 µM and the IC50 [2, 6] is reported as > 10 µM.

In the case of `COc1cc(N(C)c2nc(Cl)ncc2F)ccc1Cl` [Compound 659], the IC50 [1, 5] is reported as > 10 µM and the IC50 [2, 6] is reported as > 10 µM.

In the case of `COc1ccc(N(C)c2nc(Cl)ncc2F)cc1Cl` [Compound 660], the IC50 [1, 5] is reported as > 10 µM and the IC50 [2, 6] is reported as > 10 µM.

In the case of `CNC(=O)Cn1ccc2ccc(Nc3ncc(F)c(Nc4ccc(OC(F)(F)F)c(Cl)c4)n3)cc21` [Compound 662, N4-(3-Chloro-4-trifluoromethoxyphenyl)-5-fluoro-N2-[1-(N-methylamino)carbonylmethyleneindol-6-yl]-2,4-pyrimidinediamine], the IC50 [1, 3] is reported as < 10 µM, the IC50 [1, 4] is reported as < 10 µM and the IC50 ([2]; tryptase release, 3 point) is reported as > 10 µM.

For `CNC(=O)Cn1ccc2ccc(Nc3ncc(F)c(Nc4ccc(Cl)c(OC)c4)n3)cc21` [Compound 663, N4-(4-Chloro-3-methoxyphenyl)-5-fluoro-N2-[1-(N-methylamino)carbonylmethyleneindol-6-yl]-2,4-pyrimidinediamine], the IC50 [1, 3] was < 10 µM and the IC50 ([2]; tryptase release, 3 point) was > 10 µM.

For `CNC(=O)Cn1ccc2ccc(Nc3ncc(F)c(Nc4ccc(OC)c(Cl)c4)n3)cc21` [Compound 664, N4-(3-Chloro-4-methoxyphenyl)-5-fluoro-N2-[1-(N-methylamino)carbonylmethyleneindol-6-yl]-2,4-pyrimidinediamine], the IC50 [1, 3] was < 10 µM, the IC50 [1, 4] was < 10 µM and the IC50 ([2]; tryptase release, 3 point) was > 10 µM.

For `CNC(=O)Cn1ccc2ccc(Nc3ncc(F)c(Nc4ccc(C(=O)NC)c(Cl)c4)n3)cc21` [Compound 665, N4-[3-Chloro-4-(N-methylamino)carbonylphenyl]-5-fluoro-N2-[1-(N-methylamino)carbonylmethyleneindol-6-yl]-2,4-pyrimidinediamine], the IC50 [1, 3] was < 10 µM and the IC50 ([2]; tryptase release, 3 point) was > 10 µM.

For `COc1ccc(Nc2nc(Cl)ncc2F)cc1Cl` [Compound 666], the IC50 [1, 5] was > 10 µM and the IC50 [2, 6] was > 10 µM.

`CCn1ncc2cc(Nc3ncc(F)c(Nc4ccc(OC)c(Cl)c4)n3)ccc21` [Compound 694] was tested, and the IC50 [1, 7] was < 10 µM, the IC50 [1, 8] was < 10 µM and the IC50 [2, 9] was > 10 µM.

In the case of `CCn1ncc2cc(Nc3ncc(F)c(Nc4ccc(Cl)c(Cl)c4)n3)ccc21` [Compound 695, N4-(3,4-Dichlorophenyl)-N2-(1-ethylindazol-5-yl)-5-fluoro-2,4-pyrimidinediamine], the IC50 [1, 7] is reported as > 10 µM and the IC50 [2, 9] is reported as > 10 µM.

For `CCn1ncc2cc(Nc3ncc(F)c(Nc4ccc5c(c4)NC(=O)C(C)(C)O5)n3)ccc21` [Compound 696, N4-(2,2-Dimethyl-3-oxo-4H-benz[1,4]oxazin-6-yl)-N2-(1-ethylindazol-5-yl)-5-fluoro-2,4-pyrimidinediamine], the IC50 [1, 7] was < 10 µM, the IC50 [1, 8] was < 10 µM and the IC50 [2, 9] was < 10 µM.

`CCn1ncc2cc(Nc3ncc(F)c(Nc4ccc(F)c(OC)c4)n3)ccc21` [Compound 697, N2-(1-Ethylindazol-5-yl)-5-fluoro-N4-(4-fluoro-3-methoxyphenyl)-2,4-pyrimidinediamine] was tested, and the IC50 [1, 7] was < 10 µM, the IC50 [1, 8] was < 10 µM and the IC50 [2, 9] was > 10 µM.

In the case of `CCn1ncc2ccc(Nc3ncc(F)c(Nc4ccc(OC)c(Cl)c4)n3)cc21` [Compound 698, N4-(3-Chloro-4-methoxyphenyl)-N2-(1-ethylindazol-6-yl)-5-fluoro-2,4-pyrimidinediamine], the IC50 [1, 7] is reported as < 10 µM, the IC50 [1, 8] is reported as < 10 µM and the IC50 [2, 9] is reported as > 10 µM.

With `CCn1ncc2ccc(Nc3ncc(F)c(Nc4ccc(Cl)c(Cl)c4)n3)cc21` [Compound 699, N4-(3,4-Dichlorophenyl)-N2-(1-ethylindazol-6-yl)-5-fluoro-2,4-pyrimidinediamine] the IC50 [1, 7] was < 10 µM and the IC50 [2, 9] was < 10 µM.

In the case of `CCn1ncc2ccc(Nc3ncc(F)c(Nc4ccc5c(c4)NC(=O)C(C)(C)O5)n3)cc21` [Compound 700, N4-(2,2-Dimethyl-3-oxo-4H-benz[1,4]oxazin-6-yl)-N2-(1-ethylindazol-6-yl)-5-fluoro-2,4-pyrimidinediamine], the IC50 [1, 7] is reported as < 10 µM, the IC50 [1, 8] is reported as < 10 µM and the IC50 [2, 9] is reported as < 10 µM.

In the case of `CCn1ncc2ccc(Nc3ncc(F)c(Nc4ccc(F)c(OC)c4)n3)cc21` [Compound 701, N2-(1-Ethylindazol-6-yl)-5-fluoro-N4-(4-fluoro-3-methoxyphenyl)-2,4-pyrimidinediamine], the IC50 [1, 7] is reported as < 10 µM and the IC50 [2, 9] is reported as < 10 µM.

For `CCCn1ncc2ccc(Nc3ncc(F)c(Nc4ccc(OC)c(Cl)c4)n3)cc21` [Compound 706, N4-(3-Chloro-4-methoxyphenyl)-5-fluoro-N2-(1-n-propylindazol-6-yl)-2,4-pyrimidinediamine], the IC50 [1, 8] was < 10 µM and the IC50 [2, 9] was < 10 µM.

For `CCn1cc2ccc(Nc3ncc(F)c(Nc4ccc5c(c4)NC(=O)C(C)(C)O5)n3)cc2n1` [Compound 761, N4-(2,2-Dimethyl-3-oxo-4H-benz[1,4]oxazin-6-yl)-N2-(2-ethylindazol-6-yl)-5-fluoro-2,4-pyrimidinediamine], the IC50 [1, 7] was < 10 µM, the IC50 [1, 8] was < 10 µM and the IC50 [2, 9] was > 10 µM.

`Cn1ncc2ccc(Nc3ncc(F)c(Nc4ccc5c(c4)NC(=O)C(C)(C)O5)n3)cc21` [Compound 766, N4-(2,2-Dimethyl-3-oxo-4H-benz[1,4]oxazin-6-yl)-5-fluoro-N2-(1-methylindazol-6-yl)-2,4-pyrimidinediamine DL-Camphor-1-sulfonic Acid Salt] was tested, and the IC50 ([1]; tryptase, 3 pt, read-out: LD Tryptase, CHMC, IgE, 3 pt) was < 10 µM, the IC50 ([1]; tryptase, 8 pt, read-out: LD Tryptase, CHMC, IgE, 8 pt) was < 10 µM and the IC50 ([2]; tryptase, 3 pt) was > 10 µM.

For `Cn1ncc2ccc(Nc3ncc(F)c(Nc4ccc5c(c4)NC(=O)C(C)(C)O5)n3)cc21` [Compound 769, N4-(2,2-Dimethyl-3-oxo-4H-benz[1,4]oxazin-6-yl)-5-fluoro-N2-(1-methylindazol-6-yl)-2,4-pyrimidinediamine Benzenesulfonic Acid Salt], the IC50 [1, 10] was < 10 µM, the IC50 [1, 11] was < 10 µM and the IC50 [2, 12] was > 10 µM.

In the case of `COCCn1ncc2cc(Nc3ncc(F)c(Nc4ccc(Cl)c(Cl)c4)n3)ccc21` [Compound 771, N4-(3,4-Dichlorophenyl)-5-fluoro-N2-[1-(2-methoxyethyl)indazol-5-yl]-2,4-pyrimidinediamine], the IC50 [1, 10] is reported as < 10 µM, the IC50 [1, 11] is reported as < 10 µM and the IC50 [2, 12] is reported as > 10 µM.

`COCCn1ncc2cc(Nc3ncc(F)c(Nc4ccc(OC)c(Cl)c4)n3)ccc21` [Compound 772, N4-(3-Chloro-4-methoxyphenyl)-5-fluoro-N2-[1-(2-methoxyethyl)indazol-5-yl]-2,4-pyrimidinediamine] was tested, and the IC50 [1, 10] was < 10 µM, the IC50 [1, 11] was < 10 µM and the IC50 [2, 12] was > 10 µM.

In the case of `COCCn1ncc2cc(Nc3ncc(F)c(Nc4ccc5c(c4)NC(=O)C(C)(C)O5)n3)ccc21` [Compound 773, N4-(2,2-Dimethyl-3-oxo-4H-benz[1,4]oxazin-6-yl)-5-fluoro-N2-[1-(2-methoxyethyl)indazol-5-yl]-2,4-pyrimidinediamine], the IC50 [1, 10] is reported as < 10 µM, the IC50 [1, 11] is reported as < 10 µM and the IC50 [2, 12] is reported as > 10 µM.

In the case of `COCCn1ncc2cc(Nc3ncc(F)c(Nc4ccc(F)c(OC)c4)n3)ccc21` [Compound 774, 5-Fluoro-N4-(4-fluoro-3-methoxyphenyl)-N2-[1-(2-methoxyethyl)indazol-5-yl]-2,4-pyrimidinediamine], the IC50 [1, 10] is reported as < 10 µM, the IC50 [1, 11] is reported as < 10 µM and the IC50 [2, 12] is reported as > 10 µM.

With `COCCn1ncc2ccc(Nc3ncc(F)c(Nc4ccc(Cl)c(Cl)c4)n3)cc21` [Compound 775, N4-(3,4-Dichlorophenyl)-5-fluoro-N2-[1-(2-methoxyethyl)indazol-6-yl]-2,4-pyrimidinediamine] the IC50 [1, 10] was < 10 µM, the IC50 [1, 11] was < 10 µM and the IC50 [2, 12] was > 10 µM.

For `COCCn1ncc2ccc(Nc3ncc(F)c(Nc4ccc(OC)c(Cl)c4)n3)cc21` [Compound 776, N4-(3-Chloro-4-methoxyphenyl)-5-fluoro-N2-[1-(2-methoxyethyl)indazol-6-yl]-2,4-pyrimidinediamine], the IC50 [1, 10] was < 10 µM, the IC50 [1, 11] was < 10 µM and the IC50 [2, 12] was > 10 µM.
